One assay has as its target T1, motilin receptor (Oryctolagus cuniculus, UniProt G1T803).
T1 construct: had the mucous membrane separated and homogenized in 50 mM Tris-HCl buffer to prepare a receptor sample; from tissue; host or cells: rabbit duodenum with the mucosa removed, homogenate
The assay can be described thus: Motilin receptor binding test. The following applies: rabbit duodenum homogenate, 125I motilin 25 pM; concentration reducing specific binding by 50%. The method, then:
Motilin Receptor Binding Test
A motilin receptor binding test was conducted in the following manner [Bormans et al., Regul. Peptides, 15, 143 (1986)]. The duodenum was extracted from a slaughtered rabbit, had the mucous membrane separated and homogenized in 50 mM Tris-HCl buffer to prepare a receptor sample. The sample was incubated together with ^125 I motilin 25 pM and thereafter the radioactivity bound to the receptor was measured. Specific binding was defined as the difference between the radioactivity in the case of adding 1% DMSO in place of the compounds of the examples and that in the case of adding a great excess amount of motilin (10^-7 M). The activity of each compound was expressed by IC50 (in nM), as the concentration sufficient to reduce the specific binding by 50%.

Assay [1] relates to motilin-induced contraction of a specimen of longitudinal muscle in the duodenum extracted from a rabbit. Nature of the assay: Contraction suppressing test: action on motilin-induced contraction of duodenum longitudinal muscle specimen. The assay is classed as cell-based. The following applies: rabbit duodenum specimen in organ bath, Krebs solution 28° C.; effect on dose-dependent contraction by motilin. The procedure:
Action on the Contraction of a Specimen of Longitudinal Muscle in the Duodenum Extracted from a Rabbit
The action on the motilin-induced contraction of a specimen of longitudinal muscle in the duodenum extracted from a rabbit was investigated by the following method. A duodenum specimen extracted from a slaughtered rabbit (3×10 mm) was suspended in an organ bath (10 ml) such that the longitudinal muscle would run vertically; the bath was filled with a Krebs solution kept at 28° C. A mixed gas (95% O2 and 5% CO2) was continuously bubbled into the Krebs solution and the contraction of the duodenum specimen was recorded isotonically (with a 1-g load) via an isotonic transducer (TD-111T of Nihon Koden, K.K.) The degree of contraction was expressed in relative values, with the contraction by acetylcholine at a dose of 10^-4 M being taken as 100%. The activity of each compound was calculated as pA2 value indicating its effect on the dose-dependent muscle contraction by the motilin put into the organ bath.

Square brackets hold non-standard residues; d marks the D form. Peptide text beside a SMILES is read from it. Tyr(3-tBu) = CC(C)(C)c1cc(C[CH](N)C(=O)O)ccc1O; Phg = N[CH](C(=O)O)c1ccccc1

T1 sequence (G1T803 1-400): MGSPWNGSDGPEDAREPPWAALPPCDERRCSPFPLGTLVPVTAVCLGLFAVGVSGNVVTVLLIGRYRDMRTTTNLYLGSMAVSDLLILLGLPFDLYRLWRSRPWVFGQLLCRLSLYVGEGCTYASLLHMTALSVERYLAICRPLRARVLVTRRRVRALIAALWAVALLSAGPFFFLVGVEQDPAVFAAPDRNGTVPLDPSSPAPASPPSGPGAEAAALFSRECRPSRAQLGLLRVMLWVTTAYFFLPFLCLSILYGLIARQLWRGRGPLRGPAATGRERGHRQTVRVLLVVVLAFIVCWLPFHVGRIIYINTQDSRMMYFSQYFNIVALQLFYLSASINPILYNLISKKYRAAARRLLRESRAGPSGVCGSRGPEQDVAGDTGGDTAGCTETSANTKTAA

The IC50 is the midpoint of a concentration-inhibition curve. Read a low IC50 as higher potency. `CC(C)(C)c1cc(CC(NC(=O)C(NC(=O)C(N)Cc2ccccc2)c2ccccc2)C(N)=O)ccc1O` (stereo not drawn) [Example 5, Phe-Phg-Tyr(3-tBu)-NH2] (H-Phe-[Phg]-[Tyr(3-tBu)]-NH2; configuration not given here) displayed an IC50 on motilin receptor of 12 nM. In addition, in assay [1], the “Contraction suppressing test, pA2” value was found to be 7.81.

The compound `CN(C(=O)C(N)Cc1ccccc1)C(C(=O)NC(Cc1ccc(O)c(C(C)(C)C)c1)C(N)=O)c1ccccc1` [Example 18B, Phe-N-Me-D-Phg-Tyr(3-tBu)-NH2] showed an IC50 at motilin receptor of 3.7 nM. Also, the “Contraction suppressing test, pA2” value in assay [1] came to 8.58.

On motilin receptor, `CC(C)[C@@H](C(=O)N(C)[C@@H](Cc1ccc(O)c(C(C)(C)C)c1)C(N)=O)N(C)C(=O)[C@@H](N)Cc1ccccc1` [Example 119, Phe-N-Me-Val-N-Me-Tyr(3-tBu)-NH2] (HELM PEPTIDE1{F.[meV].[CN([C@@H](Cc1ccc(O)c(C(C)(C)C)c1)C(=O)[*:2])[*:1]].[am]}$$$$V2.0) yielded an IC50 of 4.3 nM. For the same compound, the “Contraction suppressing test, pA2” value in assay [1] came out at 8.59.

The compound `CC(Cc1ccc(O)c(C(C)(C)C)c1)NC(=O)C(C(C)C)N(C)C(=O)[C@@H](N)Cc1ccccc1` (some centres unmarked) [Example 118, N-[2-(3-tert-butyl-4-hydroxyphenyl)-1-methylethyl]-3-methyl-2-(N-methyl-N-phenylalanylamino)butanamide] had an IC50 on motilin receptor of 1.9 nM. Also, the “Contraction suppressing test, pA2” value in assay [1] is 8.43.

The record behind these values is US6255285A, “Phenethylamine derivatives” (Chugai Seiyaku Kabushiki Kaisha, priority 1997, dated 2001).
